According to patent publication US10391068B2 (priority 2012, dated 2019):
Several values for one entry are separate records, joined by “and”; a condition that tells them apart may be missing. Equal entries are not always repeated. Entries after “also recorded” stand apart in the source; their conditions may differ. Where two headings read alike, the source gives them in different places.

Legend:
recombinant mouse PrP^C = recombinant mouse PrP^C (Mus musculus, UniProt P04925); test: biochemical; assay type: binding
human recombinant PrP^C = human recombinant PrP^C (Homo sapiens, UniProt P04156); test: biochemical; assay type: binding
[1] = assay type: binding; settings: read-out: KD (did not bind detectably)
N-PrP (23-111) [2] = biological target: T1, N-PrP (23-111) (Mus musculus, UniProt P04925); assay type: binding
C-PrP (120-230) = C-PrP (120-230) (Mus musculus, UniProt P04925); assay type: binding
recombinant C-PrP = recombinant C-PrP (Mus musculus, UniProt P04925); test: biochemical; assay type: binding
PrP^23-230 = PrP^23-230 (Mus musculus, UniProt P04925); assay type: binding
moPrP (23-230) [3] = assay type: binding, mouse
[4] = biological target: Aβ oligomers binding to PrP^C (Mus musculus, UniProt P04925); test: biochemical
[5] = biological target: Aβ oligomers binding to PrP^C (Homo sapiens, UniProt P04156)
[6] = tested on: Aβ oligomer binding to PrP-expressing HEK cells; assay type: cell-based
[7] = biological target: Aβ oligomers binding to N-PrP (Mus musculus, UniProt P04925)
moPrP (23-230) [8] = biological target: T2, moPrP (23-230) (Mus musculus, UniProt P04925); assay type: biochemical
N-PrP (23-111) [9] = biological target: T1, N-PrP (23-111); assay type: biochemical
[10] = biological target: T3, N-PrP / C-PrP interaction (Mus musculus, UniProt P04925); assay type: biochemical
[11] = biological target: T3, N-PrP / C-PrP interaction; assay type: binding
[12] = tested on: Aβ oligomer inhibition of LTP in hippocampal slices; assay type: cell-based, mice
[13] = tested on: postnatal mouse hippocampal neurons treated with Aβ oligomers; assay type: cell-based
moPrP (23-230) [14] = biological target: T2, moPrP (23-230)
bovine serum albumin = bovine serum albumin (Bos taurus, UniProt P02769); test: biochemical
[15] = biological target: Recombinant C-PrP (residues 120-230) (Mus musculus, UniProt P04925); assay type: binding
myoglobin = myoglobin (Equus caballus, UniProt P68082); assay type: binding
BSA = BSA (Bos taurus, UniProt P02769); assay type: binding

bovine serum albumin, sequence (P02769 25-607): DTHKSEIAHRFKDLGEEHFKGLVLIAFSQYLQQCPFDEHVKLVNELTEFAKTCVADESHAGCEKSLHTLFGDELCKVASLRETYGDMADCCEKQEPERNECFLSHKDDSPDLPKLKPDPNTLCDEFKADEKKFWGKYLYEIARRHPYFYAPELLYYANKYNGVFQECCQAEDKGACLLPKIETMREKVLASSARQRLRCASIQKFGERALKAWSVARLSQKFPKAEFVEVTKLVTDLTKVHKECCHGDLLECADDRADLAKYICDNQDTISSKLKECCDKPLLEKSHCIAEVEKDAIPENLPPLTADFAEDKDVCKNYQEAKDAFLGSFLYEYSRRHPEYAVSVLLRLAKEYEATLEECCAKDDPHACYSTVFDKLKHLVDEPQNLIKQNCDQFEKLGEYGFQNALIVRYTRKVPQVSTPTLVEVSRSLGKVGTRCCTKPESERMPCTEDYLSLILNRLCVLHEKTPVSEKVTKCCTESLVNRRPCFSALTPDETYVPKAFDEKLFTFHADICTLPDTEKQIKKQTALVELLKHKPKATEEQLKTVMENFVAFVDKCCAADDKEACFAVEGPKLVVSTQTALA
myoglobin, sequence (P68082 2-154): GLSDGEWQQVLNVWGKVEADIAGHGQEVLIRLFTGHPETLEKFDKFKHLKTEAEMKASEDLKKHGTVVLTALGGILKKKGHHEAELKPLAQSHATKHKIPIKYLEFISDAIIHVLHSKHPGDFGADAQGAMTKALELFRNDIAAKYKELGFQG

With `NC(=S)NN=C1C(O)C(O)C(O)C(O)C1O` [DS26, 2-(2R,3S,5R,6S-pentahydroxycyclohexylidene)hydrazinecarbothioamide] as the compound, how does the “DS26 remained bound to PrP^C after washing” value (recombinant mouse PrP^C) read?
Its value is 70%.

And the Kd (recombinant mouse PrP^C)?
The Kd was 0.571 µM.

What about the “binding to PrP^C by SPR (in words)” value (recombinant mouse PrP^C) of the same compound?
Its value is “sub-micromolar affinity; also recorded: higher affinity; also recorded: stereospecific; also recorded: bound; also recorded: binds; also recorded: bind to PrP^C”.

What about the koff (recombinant mouse PrP^C) of the same compound?
The koff was 0.00014 s⁻¹.

And the kon (recombinant mouse PrP^C)?
The kon was 245 M⁻¹ s⁻¹.

What about the “rate of dissociation (Koff) from PrP^C (in words)” value (recombinant mouse PrP^C) of the same compound?
Its value is “particularly slow rate of dissociation; also recorded: remarkably slow dissociation kinetics”.

And the residence time (recombinant mouse PrP^C; read-out: half-life for the bound state)?
Its residence time is 83 min.

And the koff (recombinant mouse PrP^C; read-out: koff rate)?
Its koff is 0.00014 s⁻¹.

What about the kon (recombinant mouse PrP^C; read-out: kon rate) of the same compound?
Its kon is 245 M⁻¹ s⁻¹.

And the Kd (human recombinant PrP^C)?
Its Kd is 0.571 µM.

What about the “binding to human versus mouse PrP^C (in words)” value (human recombinant PrP^C) of the same compound?
Its value is “identical affinity”.

And the Kd [1]?
Its Kd is over 1000 µM.

What about the “binding to N-PrP (in words)” value (N-PrP (23-111) [2]) of the same compound?
The value was “failed to bind”.

And the “binding to C-PrP (in words)” value (C-PrP (120-230))?
The value was “bound; also recorded: binds”.

And the Kd (recombinant C-PrP)?
The Kd was 0.3 µM.

And the “competition with / displacement of DS104 (in words)” value (recombinant C-PrP)?
Its value is “able to displace DS104; also recorded: competed with DS104”.

What about the “binding to PrP^C by EqD (in words)” value (PrP^23-230) of the same compound?
Its value is “retained by PrP^C in the sample chamber”.

What about the “decrease in the concentration of compound in the assay chamber” value (PrP^23-230) of the same compound?
The value was 75%.

What about the “difference in Tm versus PrP^C alone” value (moPrP (23-230) [3]) of the same compound?
Its value is 2.11 °C.

And the “melting temperature (Tm) of PrP in presence of compound” value (moPrP (23-230) [3])?
The value was 68.93±0.1 °C and 68.9 °C.

What about the IC50 [4] of the same compound?
Its IC50 is about 15 µM.

And the “inhibition of Aβ oligomer binding to PrP^C by SPR (in words)” value [4]?
Its value is “inhibited binding of Aβ oligomers to PrP^C in a dose-dependent fashion; also recorded: decreased the binding of Aβ oligomers to PrP^C in a dose-dependent manner; also recorded: prevents binding of Aβ oligomers”.

What about the “reduction of the Aβ oligomer-PrP^C interaction” value [4] of the same compound?
The value was “more than 90%”.

What about the “release of Aβ oligomers pre-bound to PrP^C (in words)” value [5] of the same compound?
The value was “unable to release Aβ that was already attached to PrP^C; also recorded: unable to dislodge Aβ oligomers”.

And the “estimated IC50 on cells (in words)” value [6]?
Its value is “higher than the corresponding value observed by SPR and ELISA”.

What about the “inhibition of Aβ oligomer binding to PrP^C on cells (in words)” value [6] of the same compound?
The value was “dose-dependent inhibition of Aβ binding; also recorded: inhibits binding of Aβ oligomers to PrP^C on cells”.

What about the “inhibition of Aβ oligomer binding to N-PrP (in words)” value [7] of the same compound?
The value was “failed to inhibit the binding of Aβ oligomers to N-PrP”.

And the “Trp fluorescence of full-length PrP (in words)” value (moPrP (23-230) [8])?
Its value is “dose-dependent quenching; also recorded: quenched the trp fluorescence in a dose-dependent manner”.

What about the “Trp fluorescence of N-PrP (in words)” value (N-PrP (23-111) [9]) of the same compound?
The value was “unaffected; also recorded: did not alter the trp fluorescence”.

And the “co-immunoprecipitation of C-PrP with N-PrP (in words)” value [10]?
The value was “Co-immunoprecipitation of the two PrP fragments occurred only after incubation with DS26; also recorded: C-PrP was immunoprecipitated with N-PrP only in the presence of DS26”.

And the “N-PrP binding to C-PrP by SPR (in words)” value [11]?
The value was “N-PrP interacted with C-PrP only after pre-injection of DS26; also recorded: N-PrP bound to C-PrP that had been pre-treated with DS26”.

What about the “LTP after Aβ oligomer exposure (in words)” value [12] of the same compound?
The value was “significantly reversed the inhibitory effect of Aβ oligomers on LTP; also recorded: significantly (*p<0.05) enhances LTP after Aβ exposure”.

And the “LTP with compound alone (in words)” value [12]?
The value was “No change in LTP was detected”.

What about the “levels of synaptic markers after Aβ oligomers (in words)” value [13] of the same compound?
The value was “significantly rescued the levels of all the synaptic markers; also recorded: blocks the toxic effects of Aβ oligomers”.

And the “levels of synaptic markers with compound alone (in words)” value [13]?
Its value is “not significantly altered”.

And the “far-UV CD spectrum of PrP^C (in words)” value (moPrP (23-230) [14])?
The value was “did not detectably alter the CD spectrum of PrP^C; also recorded: does not affect the far-UV CD spectrum”.

And the “PrP^Sc replication in vitro (in words)” value (PrP^Sc replication)?
The value was “partially inhibits”.

What about the Kd (bovine serum albumin) of the same compound?
Its Kd is over 1000 µM.

For `OC[C@@H](O)[C@H](O)[C@@H](O)c1nnn[nH]1` [DS40, (1S,2R,3R)-1-(1H-tetrazol-5-yl)butane-1,2,3,4-tetrol], which “binding to PrP^C by SPR (in words)” value (recombinant mouse PrP^C) is on record?
The value was “lower affinity; also recorded: bind to PrP^C”.

What about the “rate of dissociation (Koff) from PrP^C (in words)” value (recombinant mouse PrP^C) of the same compound?
The value was “particularly slow rate of dissociation”.

And the Kd (human recombinant PrP^C)?
Its Kd is 0.801 µM.

What about the “binding to human versus mouse PrP^C (in words)” value (human recombinant PrP^C) of the same compound?
The value was “identical affinity”.

And the “binding to N-PrP (in words)” value (N-PrP (23-111) [2])?
The value was “failed to bind”.

And the “binding to C-PrP (in words)” value (C-PrP (120-230))?
Its value is “bound”.

What about the “competition with / displacement of DS104 (in words)” value (recombinant C-PrP) of the same compound?
Its value is “able to displace DS104; also recorded: competed with DS104”.

With `O[C@@H]1[C@H](O)[C@H](O)/C(=N\NC(=S)NCc2ccc(F)cc2)[C@H](O)[C@H]1O` [DS211] as the compound, how does the Kd (recombinant mouse PrP^C) read?
Its Kd is 62.3 µM.

What about the “binding to PrP^C by SPR (in words)” value (recombinant mouse PrP^C) of the same compound?
The value was “bind to PrP^C”.

For `FC(F)(F)c1cccc(COn2c(-c3ccccc3)nc3ncccc32)c1` [DS15, reference compound], which “binding to PrP^C by EqD (in words)” value (PrP^23-230) is on record?
The value was “No binding was observed”.

What about the “Trp fluorescence of full-length PrP (in words)” value (moPrP (23-230) [8]) of the same compound?
Its value is “did not produce any change in Trp fluorescence; also recorded: did not alter the trp fluorescence”.

For `O=C1OC(C(O)C(O)CO)C(O)C1O` (stereo not drawn) [DS86, 3R,4S-dihydroxy-5S-(1,2,3-trihydroxypropyl)dihydrofuran-2(3H)-one], which “binding to PrP^C by SPR (in words)” value (recombinant mouse PrP^C) is on record?
Its value is “lower affinity; also recorded: also bind to PrP^C”.

With `O=C(O)c1cc(NC(=S)NN=C2C(O)C(O)C(O)C(O)C2O)ccc1-c1c2ccc(=O)cc-2oc2cc(O)ccc12` [DS104, (Z)—N-(3′,6′-dihydroxy-3-oxo-3H-spiro[isobenzofuran-1,9′-xanthen]-5-yl)-2-((2R,3R,4S,5R,6S)-2,3,4,5,6-pentahydroxycyclohexylidene)hydrazinecarbothioamide] as the compound, how does the Kd [15] read?
Its Kd is 4 µM.

And the “binding to myoglobin by FP” value (myoglobin)?
The value was “not detected”.

What about the “binding to BSA by FP” value (BSA) of the same compound?
The value was “not detected”.

Which results are given for “2R,3S,4S,5S,6R)-2-(hydroxymethyl)-6-[β-hydroxyphenyl)amino]tetrahydro-2H-pyran-3,4,5-triol [DS5]”?
binding to PrP^C by SPR (in words) (recombinant mouse PrP^C): lower affinity; also recorded: also bind to PrP^C; competition with / displacement of DS104 (in words) (recombinant C-PrP): able to displace DS104; also recorded: competed with DS104

Which results are given for `COc1ccc(CCNC(=S)N/N=C2\[C@@H](O)[C@@H](O)[C@@H](O)[C@H](O)[C@H]2O)cc1OC` [DS207]?
Kd (recombinant mouse PrP^C): 64.8 µM; binding to PrP^C by SPR (in words) (recombinant mouse PrP^C): bind to PrP^C

With `O=C(CN1CCCC1)Nc1ccc(Cc2ccc(NC(=O)CN3CCCC3)cc2)cc1` [GN8, N,N′-(methylenedi-4,1-phenylene)bis[2-(1-pyrrolidinyl)acetamide], reference compound] as the compound, how does the Kd (recombinant mouse PrP^C) read?
Its Kd is over 1000 µM.

What about the “binding to PrP^C by SPR (in words)” value (recombinant mouse PrP^C) of the same compound?
The value was “does not bind; also recorded: no detectable binding; also recorded: failed to bind; also recorded: failed to detect binding”.

And the “binding to PrP^C by EqD (in words)” value (PrP^23-230)?
The value was “No binding was observed; also recorded: failed to detect binding”.

And the “inhibition of Aβ oligomer binding to PrP^C by SPR (in words)” value [4]?
Its value is “does not bind PrPC in the SPR assay used for studying the binding of PrPC ligands to PrPC or inhibit binding of Aβ oligomers to PrP^C”.

With `CC(C)(C)NC(=S)N/N=C1\[C@@H](O)[C@@H](O)[C@@H](O)[C@H](O)[C@H]1O` [DS210] as the compound, how does the Kd (recombinant mouse PrP^C) read?
Its Kd is 63.1 µM.

What about the “binding to PrP^C by SPR (in words)” value (recombinant mouse PrP^C) of the same compound?
The value was “bind to PrP^C”.
